Results: patent US20250163054A1, “SUBSTITUTED BICYCLIC HETEROARYL COMPOUNDS USEFUL AS INHIBITORS OF TLR9” (Bristol-Myers Squibb Company, priority 2022, published 2025)

Key:
Assay type in all cases: cell-based
human TLR7 = biological target: T1, human TLR7 (Homo sapiens, UniProt Q9NYK1); assay: TLR7/8/9 Inhibition Reporter Assays (TLR7); details: HEK-Blue cells overexpressing human TLR7, SEAP reporter, stimulated with TLR7 ligand gardiquimod
T1 construct: host or cells: HEK-Blue cells (HEK293-derived reporter line)
T1 sequence (Q9NYK1 27-1049): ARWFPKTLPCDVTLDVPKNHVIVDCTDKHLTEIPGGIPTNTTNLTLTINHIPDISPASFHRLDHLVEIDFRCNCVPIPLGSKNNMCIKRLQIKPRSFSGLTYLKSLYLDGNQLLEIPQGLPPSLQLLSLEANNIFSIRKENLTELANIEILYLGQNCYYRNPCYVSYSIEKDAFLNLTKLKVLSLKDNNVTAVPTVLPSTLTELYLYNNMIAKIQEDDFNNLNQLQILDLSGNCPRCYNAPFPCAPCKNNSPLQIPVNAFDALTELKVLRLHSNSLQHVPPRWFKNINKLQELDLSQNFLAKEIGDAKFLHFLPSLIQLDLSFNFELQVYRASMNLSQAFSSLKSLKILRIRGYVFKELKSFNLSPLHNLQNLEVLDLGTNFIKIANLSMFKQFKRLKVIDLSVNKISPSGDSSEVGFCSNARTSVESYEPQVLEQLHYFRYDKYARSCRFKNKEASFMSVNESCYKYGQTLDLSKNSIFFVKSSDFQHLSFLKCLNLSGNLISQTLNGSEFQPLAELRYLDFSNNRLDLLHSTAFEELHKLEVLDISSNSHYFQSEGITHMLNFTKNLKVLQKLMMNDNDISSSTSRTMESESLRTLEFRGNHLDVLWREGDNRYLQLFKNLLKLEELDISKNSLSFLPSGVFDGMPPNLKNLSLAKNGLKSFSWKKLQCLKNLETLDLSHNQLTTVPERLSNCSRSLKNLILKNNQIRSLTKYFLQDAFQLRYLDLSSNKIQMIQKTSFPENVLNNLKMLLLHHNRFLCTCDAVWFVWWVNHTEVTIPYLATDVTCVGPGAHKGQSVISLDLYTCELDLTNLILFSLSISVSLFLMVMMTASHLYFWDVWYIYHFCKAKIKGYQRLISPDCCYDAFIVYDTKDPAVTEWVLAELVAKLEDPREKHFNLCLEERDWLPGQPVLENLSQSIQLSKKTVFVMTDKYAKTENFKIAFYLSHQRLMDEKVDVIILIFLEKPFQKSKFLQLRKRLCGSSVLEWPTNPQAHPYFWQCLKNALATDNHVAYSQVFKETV
Experimental: (§1) HEK-Blue™-cells (Invivogen) overexpressing human TLR7, TLR8 or TLR9 receptors were used for screening inhibitors of these receptors using an inducible SEAP (secreted embryonic alkaline phosphatase) reporter gene under the control of the IFN-β minimal promoter fused to five NF-κB and AP-1-binding sites. Cells are seeded into Greiner 384 well plates (15000 cells per well) that are predispensed (by ECHO) with testing compounds in DMSO to yield a final dose response concentration range of 0.85 nM-[…]. After a 60 minute compound pre-treatment in 37° C. incubator, the cells are then stimulated with a TLR7 ligand (gardiquimod at a final concentration of […]), TLR8 ligand (R848 at a final concentration of […]) or TLR9 ligand (ODN2006 at a final concentration of 200 nM) to activate NF-κB and AP-1 which induce the production of SEAP. After a 22 hour incubation at 37° C., 5% CO2, SEAP levels are determined with the addition of HEK-Blue™ Detection reagent (Invivogen), a cell culture medium that allows for detection of SEAP, according to manufacturer's specifications. The percent inhibition is determined as the % reduction in the HEK-Blue signal present in wells treated with agonist plus DMSO alone compared to wells treated with a known inhibitor.

human TLR9 = biological target: T2, human TLR9 (Homo sapiens, UniProt Q9NR96); assay: TLR7/8/9 Inhibition Reporter Assays (TLR9); details: HEK-Blue cells overexpressing human TLR9, SEAP reporter, stimulated with TLR9 ligand ODN2006
T2 construct: host or cells: HEK-Blue cells (HEK293-derived reporter line)
T2 sequence (Q9NR96 26-1032): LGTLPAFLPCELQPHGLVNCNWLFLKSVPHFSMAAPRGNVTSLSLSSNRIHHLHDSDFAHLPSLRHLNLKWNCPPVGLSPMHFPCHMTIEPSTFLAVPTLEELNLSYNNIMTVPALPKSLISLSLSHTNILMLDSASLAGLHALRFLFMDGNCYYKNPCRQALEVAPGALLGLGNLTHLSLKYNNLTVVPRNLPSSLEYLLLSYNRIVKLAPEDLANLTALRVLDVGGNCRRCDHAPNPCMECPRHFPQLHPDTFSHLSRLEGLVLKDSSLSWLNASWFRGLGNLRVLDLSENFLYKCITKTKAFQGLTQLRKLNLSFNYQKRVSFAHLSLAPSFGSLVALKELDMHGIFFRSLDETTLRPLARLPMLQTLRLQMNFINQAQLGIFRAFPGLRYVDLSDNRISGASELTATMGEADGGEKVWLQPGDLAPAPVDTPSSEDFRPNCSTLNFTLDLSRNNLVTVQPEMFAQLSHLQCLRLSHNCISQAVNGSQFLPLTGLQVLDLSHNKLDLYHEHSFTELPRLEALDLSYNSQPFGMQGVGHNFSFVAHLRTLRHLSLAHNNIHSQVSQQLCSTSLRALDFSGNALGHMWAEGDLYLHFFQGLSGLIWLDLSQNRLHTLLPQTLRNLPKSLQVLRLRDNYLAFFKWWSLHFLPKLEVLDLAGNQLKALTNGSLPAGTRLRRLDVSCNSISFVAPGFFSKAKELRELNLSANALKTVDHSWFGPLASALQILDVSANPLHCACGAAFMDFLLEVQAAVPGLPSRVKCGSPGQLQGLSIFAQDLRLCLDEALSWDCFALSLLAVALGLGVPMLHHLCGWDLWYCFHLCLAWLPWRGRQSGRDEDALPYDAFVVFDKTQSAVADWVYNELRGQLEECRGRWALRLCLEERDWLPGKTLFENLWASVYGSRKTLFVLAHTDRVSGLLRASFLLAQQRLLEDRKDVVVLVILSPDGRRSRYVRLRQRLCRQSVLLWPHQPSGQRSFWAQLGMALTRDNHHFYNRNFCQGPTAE
Experimental: as §1

human TLR8 = biological target: T3, human TLR8 (Homo sapiens, UniProt Q9NR97); assay: TLR7/8/9 Inhibition Reporter Assays (TLR8); details: HEK-Blue cells overexpressing human TLR8, SEAP reporter, stimulated with TLR8 ligand R848
T3 construct: host or cells: HEK-Blue cells (HEK293-derived reporter line)
T3 sequence (Q9NR97 27-1041): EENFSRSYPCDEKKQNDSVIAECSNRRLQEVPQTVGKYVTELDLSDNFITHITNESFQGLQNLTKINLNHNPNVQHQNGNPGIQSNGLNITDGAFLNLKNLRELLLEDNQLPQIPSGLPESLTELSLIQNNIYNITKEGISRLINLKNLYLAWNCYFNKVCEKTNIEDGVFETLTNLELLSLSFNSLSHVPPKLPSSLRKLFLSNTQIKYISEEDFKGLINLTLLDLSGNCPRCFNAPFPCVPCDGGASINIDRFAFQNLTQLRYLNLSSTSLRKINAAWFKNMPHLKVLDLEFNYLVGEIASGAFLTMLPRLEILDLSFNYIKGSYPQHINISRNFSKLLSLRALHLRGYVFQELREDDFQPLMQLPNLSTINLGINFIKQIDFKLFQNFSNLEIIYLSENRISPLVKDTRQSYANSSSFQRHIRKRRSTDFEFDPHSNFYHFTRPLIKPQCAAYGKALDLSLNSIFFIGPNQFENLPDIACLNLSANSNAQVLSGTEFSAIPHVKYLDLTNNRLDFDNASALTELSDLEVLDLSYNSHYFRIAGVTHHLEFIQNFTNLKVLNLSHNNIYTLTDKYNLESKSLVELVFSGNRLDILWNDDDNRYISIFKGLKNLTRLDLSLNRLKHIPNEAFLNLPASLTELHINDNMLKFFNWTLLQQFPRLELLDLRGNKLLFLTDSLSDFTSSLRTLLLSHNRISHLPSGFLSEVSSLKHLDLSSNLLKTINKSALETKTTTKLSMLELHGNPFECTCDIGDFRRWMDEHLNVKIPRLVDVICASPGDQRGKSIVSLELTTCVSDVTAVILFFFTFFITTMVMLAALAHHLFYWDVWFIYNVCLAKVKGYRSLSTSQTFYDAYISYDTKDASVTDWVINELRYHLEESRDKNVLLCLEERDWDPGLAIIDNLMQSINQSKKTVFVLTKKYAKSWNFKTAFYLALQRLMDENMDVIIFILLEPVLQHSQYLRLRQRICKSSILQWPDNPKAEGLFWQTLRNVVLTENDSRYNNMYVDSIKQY
Experimental: as §1

IC50 (human TLR7) [nM] | IC50 (human TLR9) [nM] | IC50 (human TLR8) [nM] | Compound
2400 | 63 | > 50000 | Cc1nc(-c2ccc(N3CC4(CCN(CC(C)C)CC4)C3)cc2)cc2c1nc(-c1ccc(S(C)(=O)=O)cc1)n2C [Example 98, 6-(4-(7-isobutyl-2,7-diazaspiro[3.5]nonan-2-yl)phenyl)-1,4-dimethyl-2-(4-(methylsulfonyl)phenyl)-1H-imidazo[4,5-c]pyridine]
9600 | 1700 | > 50000 | COc1cc(-c2nc3c(C)nc(-c4ccc(N5CCN(CC(C)C)CC5)cc4)cc3n2C)cn2ncnc12 [Example 10, 6-(6-(4-(4-isobutylpiperazin-1-yl)phenyl)-1,4-dimethyl-1H-imidazo[4,5-c]pyridin-2-yl)-8-methoxy-[1,2,4]triazolo[1,5-a]pyridine]
4500 | 600 | 2200 | COCCN1CC2(CCN(c3ccc(-c4cc5c(cn4)nc(-c4ccc(S(C)(=O)=O)cc4)n5C)cc3)CC2)C1 [Example 105, 6-(4-(2-(2-methoxyethyl)-2,7-diazaspiro[3.5]nonan-7-yl)phenyl)-1-methyl-2-(4-(methylsulfonyl)phenyl)-1H-imidazo[4,5-c]pyridine]
5300 | 230 | 440 | CC(C)N1CCN(c2ccc(-c3cc4c(cn3)nc(-c3ccc(S(C)(=O)=O)cc3)n4C)cc2)CC1 [Example 70, 6-(4-(4-isopropylpiperazin-1-yl)phenyl)-1-methyl-2-(4-(methylsulfonyl)phenyl)-1H-imidazo[4,5-c]pyridine]
12000 | 300 | 36000 | Cc1nc(-c2ccc(C3CCN(C(C)C)CC3)cc2)cc2c1nc(-c1ccc(S(C)(=O)=O)cc1)n2C [Example 2, 6-(4-(1-isopropylpiperidin-4-yl)phenyl)-1,4-dimethyl-2-(4-(methylsulfonyl)phenyl)-1H-imidazo[4,5-c]pyridine]
2600 | 250 | 44000 | COc1ccc(-c2nc3c(C)nc(-c4ccc(N5C[C@H]6CN(CC(C)(C)O)C[C@H]6C5)cc4)cc3n2C)cc1OC [Example 94, 1-((3aR,6aS)-5-(4-(2-(3,4-dimethoxyphenyl)-1,4-dimethyl-1H-imidazo[4,5-c]pyridin-6-yl)phenyl)hexahydropyrrolo[3,4-c]pyrrol-2(1H)-yl)-2-methylpropan-2-ol]
1800 | 23 | 3600 | COc1ccc(-c2nc3c(C)nc(-c4ccc(N5CC6(C5)CN(C(C)C)C6)cc4)cc3n2C)cc1OC [Example 76, 2-(3,4-dimethoxyphenyl)-6-(4-(6-isopropyl-2,6-diazaspiro[3.3]heptan-2-yl)phenyl)-1,4-dimethyl-1H-imidazo[4,5-c]pyridine]
1000 | 72 | 4900 | Cc1nc(-c2ccc(CN3CCC(N(C)C)CC3)cc2)cc2c1nc(-c1ccc(S(C)(=O)=O)cc1)n2C [Example 45, 1-(4-(1,4-dimethyl-2-(4-(methylsulfonyl)phenyl)-1H-imidazo[4,5-c]pyridin-6-yl)benzyl)-N,N-dimethylpiperidin-4-amine]
2800 | 37 | 5400 | Cc1nc(-c2ccc(N3C[C@@H]4CN(C5CCC5)C[C@@H]4C3)cc2)cc2c1nc(-c1ccc(S(C)(=O)=O)cc1)n2C [Example 69, 6-(4-((3aR,6aS)-5-cyclobutylhexahydropyrrolo[3,4-c]pyrrol-2(1H)-yl)phenyl)-1,4-dimethyl-2-(4-(methylsulfonyl)phenyl)-1H-imidazo[4,5-c]pyridine]
2400 | 99 | 640 | CS(=O)(=O)c1ccc(-c2nc3cnc(-c4ccc(N5CCN(CCCN6CCOCC6)CC5)cc4)cc3n2C2CC2)cc1 [Example 55, 4-(3-(4-(4-(1-cyclopropyl-2-(4-(methylsulfonyl)phenyl)-1H-imidazo[4,5-c]pyridin-6-yl)phenyl)piperazin-1-yl)propyl) morpholine]
4000 | 230 | > 50000 | COc1ccc(-c2nc3c(C)nc(-c4ccc(N5CCC6(CC5)CN(C5COC5)C6)cc4)cc3n2C)cc1OC [Example 106, 2-(3,4-dimethoxyphenyl)-1,4-dimethyl-6-(4-(2-(oxetan-3-yl)-2,7-diazaspiro[3.5]nonan-7-yl)phenyl)-1H-imidazo[4,5-c]pyridine]
